pIC50: −log10 of the molar value. Like-named read-outs stand apart in the source and are kept apart here. *1 amine or outer side, *2 acyl side, *3 side chain or, on linkers, in order; H or OH if unused. Where no end group is shown, it is not given here. Side-chain parts run from the residue outwards. [ ]: non-standard residue; d: D form. The star is where a group is joined. γGlu = O=C(O)[C@H](CCC(=O)[*:2])N[*:1]; Pyrrolidine(2S-CN) = N#C[C@@H]1CCCN1*; NMeY = CN[C@@H](Cc1ccc(O)cc1)C(=O)O; AEEA = NCCOCCOCC(=O)O
Legend:
ACE from rabbit lung = target: T1, ACE from rabbit lung (Oryctolagus cuniculus, UniProt P12822); assay: ACE inhibition assay; assay type: biochemical
T1 construct: ACE from rabbit lung; purchased Sigma Chemical Co; host or cells: rabbit lung tissue
T1 sequence (P12822 34-1310): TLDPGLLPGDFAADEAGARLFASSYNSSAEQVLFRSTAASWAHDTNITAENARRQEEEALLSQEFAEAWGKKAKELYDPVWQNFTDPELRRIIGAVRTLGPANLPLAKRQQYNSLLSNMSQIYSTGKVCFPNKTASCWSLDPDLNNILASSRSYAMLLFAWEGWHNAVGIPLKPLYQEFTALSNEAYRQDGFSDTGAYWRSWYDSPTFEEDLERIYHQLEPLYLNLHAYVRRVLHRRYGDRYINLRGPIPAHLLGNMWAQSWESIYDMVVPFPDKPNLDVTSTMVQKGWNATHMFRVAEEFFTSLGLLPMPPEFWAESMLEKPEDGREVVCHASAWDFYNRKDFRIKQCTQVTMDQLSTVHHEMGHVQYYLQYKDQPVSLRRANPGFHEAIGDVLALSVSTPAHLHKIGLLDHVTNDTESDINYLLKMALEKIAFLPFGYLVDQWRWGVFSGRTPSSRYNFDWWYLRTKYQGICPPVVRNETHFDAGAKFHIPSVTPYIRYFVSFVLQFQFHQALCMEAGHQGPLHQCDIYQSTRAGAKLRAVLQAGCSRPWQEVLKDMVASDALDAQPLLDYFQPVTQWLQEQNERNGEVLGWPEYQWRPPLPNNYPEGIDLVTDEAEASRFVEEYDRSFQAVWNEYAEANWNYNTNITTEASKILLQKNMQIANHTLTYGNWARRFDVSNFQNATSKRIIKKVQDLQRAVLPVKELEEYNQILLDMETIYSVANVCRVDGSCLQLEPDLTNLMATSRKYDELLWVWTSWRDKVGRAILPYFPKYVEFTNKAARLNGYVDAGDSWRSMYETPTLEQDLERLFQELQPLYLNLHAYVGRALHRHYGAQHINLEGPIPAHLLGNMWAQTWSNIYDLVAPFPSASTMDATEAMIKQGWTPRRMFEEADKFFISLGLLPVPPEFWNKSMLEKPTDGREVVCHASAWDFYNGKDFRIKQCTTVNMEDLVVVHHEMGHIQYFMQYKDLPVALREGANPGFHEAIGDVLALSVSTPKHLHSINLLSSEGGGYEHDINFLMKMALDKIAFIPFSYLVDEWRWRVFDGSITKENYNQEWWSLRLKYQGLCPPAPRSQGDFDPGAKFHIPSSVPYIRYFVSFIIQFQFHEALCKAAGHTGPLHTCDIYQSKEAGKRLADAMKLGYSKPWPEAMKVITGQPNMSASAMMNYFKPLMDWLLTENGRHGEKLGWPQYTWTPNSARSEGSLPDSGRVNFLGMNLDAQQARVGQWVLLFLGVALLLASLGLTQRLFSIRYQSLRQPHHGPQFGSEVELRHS
Method: Peptide-ACE peptidase inhibitor conjugate compounds were assessed in an ACE inhibition assay using purified ACE enzyme and chromogenic substrates. An ACE stock solution was prepared by dissolving 0.1 unit of enzyme (ACE from rabbit lung, Sigma Chemical Co., St. Louis, Mo.) in 0.640 mL of HEPES buffer (0.1 M, pH=8). A 2 mM stock solution of substrate (N-benzyloxycarbonyl-Phe-His-Leu-OH) dissolved in methanol. The ACE inhibitor compounds were dissolved in phosphate buffer (0.1 M, pH=8) at concentrations of 0.0, 1, 10, 20, 60 and 100 μM. For the inhibition assay, six 2 mL microcentrifuge tubes were prepared containing 1.45 mL of phosphate buffer pH=8, 0.05 mL of 10% NaCl and 0.015 mL of substrate solution. To each microcentrifuge tube was added 0.015 mL of one of the ACE inhibitor compound's stock solutions. The solutions were heated at 37° C. for about 5 minutes. The reaction was started by the addition of 5 μL of the ACE stock solution to each tube mixture (30 seconds in between). The reaction mixtures were incubated at 37° C. After 5 min, 10 min, 30 min and 60 min., aliquots of 100 μL were taken from each tube (each sample was taken in intervals of 30 seconds). Tubes containing the 100 μL sample were floated in a boiling water bath for 5 min. and then cooled. The reaction samples were then treated with 20 μL of 2M NaOH and 20 μL of 0.1% phthaldialdehyde solution. The tubes were shaken for 4 minutes and 10 μL of 6 M HCl were added. […] Initial rates were determined from linear portions of product release curves. Starting substrate concentration in all assays was 20 μM. Apparent binding constants (Kd^app or Ki^app) of inhibitors to ACE were determined by fitting inhibition curves (initial rate vs. inhibitor concentration) to equation:
[formula] where v0 is reaction rate in the absence of inhibitor and [I]-inhibitor concentration. Fits were done by least-squares method using KaleidaGraph 3.6 (Synergy Software, Reading Pa.).

plasma carboxypeptidase = assay: Carboxypeptidase activity assay, PYY(3-36) in human plasma; assay type: biochemical; details: for inhibition of plasma carboxypeptidase activity (in words): protease inhibitor at a final concentration of 1 mM; for inhibition of the formation of PYY(3-35) (in words): 0.5 mM in human plasma, FIGS. 10-12
Method: Carboxypeptidase activity assays were performed in the presence of various agents to test for carboxypeptidase inhibitor activity of the agents.
The remainder of the sample was placed in an incubator at 37° C., mixing at 600 RPM for sixty minutes. At 10 minute intervals, a 100 μl sample of the mixture was removed and transferred to a separate microcentrifuge tubes. Following the transfer of the 100 μL sample at the zero time point and each 10 minute interval, each collected sample was extracted by slow addition of 100 μl cold 0.2% formic acid:acetonitrile, while mixing. After addition of the acetonitrile solution, the sample was vortex mixed at high speed for 15 seconds. The extracted samples were stored at −20° C. for at least 20 minutes and then centrifuged at 11,000×g for 10 minutes at 5° C. The supernatant of each sample was transferred to a new microcentrifuge tube, centrifuged again, and finally transferred for LC/MS analysis. The MS analysis was a Q1 single ion monitoring method that detects the most intense ion of the parent molecule and the peptide fragment of interest.

NIH/Swiss mice = assay: Oral glucose tolerance test (OGTT), glucose lowering; assay type: in vivo; details: 30 nM/kg, blood glucose
Method: . Test compounds were injected IP (t=0 min) immediately following baseline measurements of 2 hour fasted NIH/Swiss mice. Blood samples were taken at 60, 120, and 180 minutes after injection. In some assays, samples were also taken at 240 minutes after the injection. Blood glucose was measured with a One-Touch® Ultra® glucose meter (LifeScan, Inc., Milpitas, Calif.). […].
The tests were performed as described in Example 5.

`CC[C@H](C)[C@H](NC(=O)[C@H](Cc1ccccc1)NC(=O)[C@H](CC(C)C)NC(=O)[C@H](CCCNC(=N)N)NC(=O)[C@@H](NC(=O)[C@H](C)NC(=O)[C@H](CCC(=O)O)NC(=O)[C@H](CCC(=O)O)NC(=O)[C@H](CCC(=O)O)NC(=O)[C@H](CC(C)C)NC(=O)[C@H](CCC(N)=O)NC(=O)[C@H](CCCCN)NC(=O)[C@H](CO)NC(=O)[C@H](CC(C)C)NC(=O)[C@H](CC(=O)O)NC(=O)[C@H](CO)NC(=O)[C@@H](NC(=O)[C@H](Cc1ccccc1)NC(=O)[C@@H](NC(=O)CNC(=O)[C@H](CCC(=O)O)NC(=O)CNC(=O)[C@@H](N)Cc1c[nH]cn1)[C@@H](C)O)[C@@H](C)O)C(C)C)C(=O)N[C@@H](CCC(=O)O)C(=O)N[C@@H](Cc1ccccc1)C(=O)N[C@@H](CC(C)C)C(=O)N[C@@H](CCCCN)C(=O)N[C@@H](CC(N)=O)C(=O)NCC(=O)NCC(=O)NCCCC[C@H](NC(CCc1ccccc1)C(=O)O)C(=O)N1CCCC1C(=O)O` (stereo partly drawn) [3633/42/1, [^14Leu,^25Phe]Exendin-4(1-28)-Gly-Gly-CONH-Lisinopril diacid] gave a pIC50 (ACE from rabbit lung) of 5.82.
For `NCCc1ccc(S(=O)(=O)F)cc1` [AEBSF, 4-(2-aminoethyl)-bezenesulfonylfluoride, reference compound], the “inhibition of plasma carboxypeptidase activity (in words)” value (plasma carboxypeptidase) was “inhibited”.
`CC[C@H](C)[C@H](NC(=O)[C@H](CC(C)C)NC(=O)[C@H](Cc1c[nH]c2ccccc12)NC(=O)[C@H](CC(=O)O)NC(=O)[C@@H](NC(=O)[C@H](Cc1ccccc1)NC(=O)[C@H](CCC(=O)O)NC(=O)[C@H](CCCCN)NC(=O)[C@H](C)NC(=O)[C@H](C)NC(=O)[C@H](CCCCN)NC(=O)[C@H](CCC(=O)O)NC(=O)[C@H](CC(=O)O)NC(=O)[C@H](CC(C)C)NC(=O)[C@H](CCC(N)=O)NC(=O)[C@H](CCC(N)=O)NC(=O)[C@@H](NC(=O)[C@@H](NC(=O)[C@H](CC(=O)O)NC(=O)[C@H](CO)NC(=O)[C@@H](NC(=O)[C@H](Cc1ccccc1)NC(=O)[C@@H](NC(=O)CNC(=O)[C@H](CCC(=O)O)NC(=O)[C@H](C)NC(=O)[C@@H](N)Cc1c[nH]cn1)[C@@H](C)O)[C@@H](C)O)C(C)C)[C@@H](C)O)[C@@H](C)CC)C(=O)N[C@@H](CC(N)=O)C(=O)NCC(=O)NCC(=O)N1CCC[C@H]1C(=O)N[C@@H](CO)C(=O)N[C@@H](CCCCN)C(=O)N[C@@H](CCC(=O)O)C(=O)N[C@H](C(=O)N[C@H](C(=O)N[C@@H](CO)C(=O)NCCOCCOCCOCC(=O)NCCOCCOCC(=O)NCCCC[C@H](NC(CCc1ccccc1)C(=O)O)C(=O)N1CCC[C@H]1C(=O)O)[C@@H](C)CC)[C@@H](C)CC` (stereo partly drawn) [Compound 5713] showed a pIC50 (ACE from rabbit lung; substrate N-benzyloxycarbonyl-Phe-His-Leu-OH 20 μM, read-out: ACE inhibition IC50) of 6.15.
In the case of `O=C(O)CN(CCN(CC(=O)O)CC(=O)O)CC(=O)O` [EDTA, reference compound], the “inhibition of plasma carboxypeptidase activity (in words)” value (plasma carboxypeptidase) was “not”.
`NCCCC[C@H](N[C@@H](CCc1ccccc1)C(=O)O)C(=O)N1CCC[C@H]1C(=O)O` [Lisinopril, reference compound] was tested, and the pIC50 (ACE from rabbit lung; commercial lisinopril, read-out: ACE inhibition IC50) was 8.89 and the pIC50 (ACE from rabbit lung; synthesized lisinopril, read-out: ACE inhibition IC50) was 8.55.
For `CNC(Cc1ccc(O)cc1)C(N)=O` (stereo not drawn) [N-methyl-Tyr-NH2], the “inhibition of the formation of PYY(3-35) (in words)” value (plasma carboxypeptidase) was “did not inhibit”.
In the case of `CC(C)C[C@H](NP(=O)(O)O[C@@H]1O[C@@H](C)[C@H](O)[C@@H](O)[C@H]1O)C(=O)N[C@@H](Cc1c[nH]c2ccccc12)C(=O)O` [phosphoramidon, reference compound], the “inhibition of plasma carboxypeptidase activity (in words)” value (plasma carboxypeptidase) was “not”.
In the case of “GIP(1-30)-Ado-Ado-Lys-N-ε-(2-(S)-cyano pyrrolidyl)”, the “OGTT (30 nM/kg) % maximal decrease” value (NIH/Swiss mice) was −17%.
With “GIP(1-30)-Ado-Lys-N-ε-(2-(S)-cyano pyrrolidyl) (YAEGTFISDYSIAMDKIHQQDFVNWLLAQK)” the “OGTT (30 nM/kg) % maximal decrease” value (NIH/Swiss mice) was −18%.
For “GIP(1-30)-exendin-4(31-39)-Ado-Ado-Lys-N-ε-(2-(S)-cyano pyrrolidyl)”, the “OGTT (30 nM/kg) % maximal decrease” value (NIH/Swiss mice) was −22%.
In the case of “GIP(1-30)-exendin-4(31-39)-Ado-Lys-N-ε-(2-(S)-cyano pyrrolidyl)”, the “OGTT (30 nM/kg) % maximal decrease” value (NIH/Swiss mice) was −18%.
“Lys^30 N-ε-(Ado-(γ-L-Glu-2-(S)-cyano pyrrolidyl)) GIP(1-30)-exendin-4(31-39)” was tested, and the “OGTT (30 nM/kg) % maximal decrease” value (NIH/Swiss mice) was −11%.
With “[Lys^30 N-ε-(Ado-(γ-L-Glu-2-(S)-cyano pyrrolidyl))]GIP(1-30) (YAEGTFISDYSIAMDKIHQQDFVNWLLAQK([AEEA-γGlu-Pyrrolidine(2S-CN)]))” the “OGTT (30 nM/kg) % maximal decrease” value (NIH/Swiss mice) was −10%.
In the case of “[^14Leu] GIP(1-30)-Ado-Lys-N-ε-(2-(S)-cyano pyrrolidyl) (YAEGTFISDYSIALDKIHQQDFVNWLLAQK)”, the “OGTT (30 nM/kg) % maximal decrease” value (NIH/Swiss mice) was −9%.
In the case of “[^16Lys (N-ε-(Aun-Aun-(γ-L-Glu-2-(S)-cyano pyrrolidyl)))] GIP(1-30)-exendin(31-39)”, the “OGTT (30 nM/kg) % maximal decrease” value (NIH/Swiss mice) was −3%.
In the case of “^36N-methyl-Tyr-amide-PYY(22-36) (ASLRHYLNLVTRQR[NMeY]-NH2; N-terminus assumed; SMILES CC(C)C[C@H](NC(=O)[C@H](CO)NC(=O)[C@H](C)N)C(=O)N[C@@H](CCCNC(=N)N)C(=O)N[C@@H](Cc1c[nH]cn1)C(=O)N[C@@H](Cc1ccc(O)cc1)C(=O)N[C@@H](CC(C)C)C(=O)N[C@@H](CC(N)=O)C(=O)N[C@@H](CC(C)C)C(=O)N[C@H](C(=O)N[C@H](C(=O)N[C@@H](CCCNC(=N)N)C(=O)N[C@@H](CCC(N)=O)C(=O)N[C@@H](CCCNC(=N)N)C(=O)N(C)[C@@H](Cc1ccc(O)cc1)C(N)=O)[C@@H](C)O)C(C)C) [N-terminal truncation of 36N-methyl-Tyr-amide-PYY(3-36)]”, the “inhibition of the formation of PYY(3-35) (in words)” value (plasma carboxypeptidase) was “measurable but lower activity”.
For “^36N-methyl-Tyr-amide-PYY(34-36) (Gln-Arg-[NMeY]-NH2; N-terminus assumed; SMILES CN(C(=O)[C@H](CCCNC(=N)N)NC(=O)[C@@H](N)CCC(N)=O)[C@@H](Cc1ccc(O)cc1)C(N)=O) [N-terminal truncation of 36N-methyl-Tyr-amide-PYY(3-36)]”, the “inhibition of the formation of PYY(3-35) (in words)” value (plasma carboxypeptidase) was “did not inhibit”.
